{DBCO} = dibenzocyclooctyne group for click conjugation; d = 2'-deoxy (DNA); r = 2'-OH (RNA)
Key:
[1] = target: T1, EGFR expressed by A549 cells (Homo sapiens, UniProt P00533); experiment: Binding of YOYO-1-stained conjugate to EGFR on A549 cells (microscopy); details: 200 nM, 30 minutes
T1 construct: EGFR expressed by A549 cells; endogenous in cells; host or cells: A549 cells
Procedure: We tested whether the EGFR binding peptide-siRNA conjugate of Example 6 was able to specifically bind EGFR expressed by A549 cells by incubating the EGFR binding peptide-siRNA conjugate of Example 6 with A549 cells. As a control, A549 cells were incubated with the unconjugated anti-EGFR siRNA of Example 6.
A549 cells were treated with 200 nM of either the EGFR-binding peptide-conjugated siRNA of Example 6 or the unconjugated EGFR siRNA of Example 6, each stained with YOYO-1, a nucleic acid staining dye.
After 30 minutes, cells were then fixated with 4% paraformaldehyde (PFA) for 10 minutes, then washed twice with DPBS. Nuclei were then stained using Hoechst 33342 and the cells were examined for YOYO-1 staining.

[2] = target: T2, PD-L1 expressed by CT26.CL25 cells (Mus musculus, UniProt Q9EP73); experiment: Binding of Cy5.5-labeled conjugate to PD-L1 on CT26.CL25 cells (fluorescence microscopy); details: 200 nM, 30 minutes at 4° C., no antibody pre-treatment
T2 construct: PD-L1 expressed by CT26.CL25 cells; endogenous in cells; host or cells: CT26.CL25 cells
Procedure: We tested whether the PD-L1 binding peptide-siRNA conjugate of Example 1 was able to specifically bind PD-L1 expressed by CT26.CL25 cells by incubating the PD-L1 binding peptide-siRNA conjugate of Example 1 with CT26.CL25 cells that either had, or had not, been pre-treated with an anti-PD-L1 antibody. As a control, CT26.CL25 cells were incubated with the unconjugated anti-PD-L1 siRNA of Example 1.
Here, 2 ml of CT26.CL25 cells (at 5×10^6 cells/ml) were seeded into each of four dishes. 24 hours after seeding, and one hour before treatment with the conjugate of Example 1, one dish was pre-treated with 1 ml of anti-PD-L1 antibody (InVivoMAb anti-mouse PD-L1, BioXCell Cat. #BE0101) at 1 mg/ml. After incubation with the antibody, the pre-treated cells were incubated with 1 ml (200 nM) of the conjugate of Example 1 for 30 minutes at 4° C. At the same time, a dish that had not been pre-treated was similarly incubated with the conjugate of Example 1, and another dish that had not been pre-treated was similarly incubated with the unconjugated anti-PD-L1 siRNA of Example 1.
Cells were then fixated with 4% paraformaldehyde (PFA) for 10 min, then washed twice with DPBS. Nuclei were then stained using Hoechst 33342 (blue of FIG. 2) and the cells were examined for Cy5.5 fluorescence (red of FIG. 2).

CT26.CL25 cells = experiment: Internalization by CT26.CL25 cells (Cy5.5 fluorescence microscopy); assay type: cell-based; details: 9 hours, 18 hours and 24 hours of incubation
Procedure: CT26.CL25 cells were incubated, as described in Example 2, with either the PD-L1 binding peptide-siRNA conjugate of Example 1 or the unconjugated Cy5.5-labeled siRNA of Example 1. After 9 hours, 18 hours, and 24 hours of incubation, cells were then fixated with 4% paraformaldehyde (PFA) for 10 min and washed twice with DPBS.
(§1) Nuclei were stained using Hoechst 33342 (blue of FIGS. 3 and 4) and the cells were examined for Cy5.5 fluorescence (red of FIGS. 3 and 4).

B16F10 cells = experiment: Internalization by B16F10 cells (Cy5.5 fluorescence microscopy); assay type: cell-based; details: 18 hours and 24 hours of incubation
Procedure: B16F10 cells were also incubated with either the PD-L1 binding peptide-siRNA conjugate of Example 1 or the unconjugated Cy5.5-labeled siRNA of Example 1 and similarly fixated after 18 hours and 24 hours of incubation.
as §1

T2 sequence (Q9EP73 19-290): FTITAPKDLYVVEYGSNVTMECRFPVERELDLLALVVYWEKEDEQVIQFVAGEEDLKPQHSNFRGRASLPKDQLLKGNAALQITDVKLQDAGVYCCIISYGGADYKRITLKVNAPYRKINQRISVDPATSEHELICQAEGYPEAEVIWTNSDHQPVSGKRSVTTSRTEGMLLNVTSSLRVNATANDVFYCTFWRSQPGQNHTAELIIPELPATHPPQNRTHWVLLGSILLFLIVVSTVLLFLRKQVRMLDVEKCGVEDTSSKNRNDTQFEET

Row | Substance | YOYO-1 staining on cells (binding to EGFR) [1] | Cy5.5 fluorescence on cells (binding to cell-surface PD-L1) [2] | Cy5.5 fluorescence on cells (binding to cell-surface PD-L1) ([2]; listed as unconjugated Cy5.5-labeled siRNA) | Internalization (Cy5.5 fluorescence) (CT26.CL25 cells) | Internalization (Cy5.5 fluorescence) (B16F10 cells)
1 | siRNA: anti-EGFR siRNA: sense AUAGGCAUUGGUGAAUUUAAAGAdCdA-[DBCO] (SEQ ID NO:120), antisense UGUCUUUAAAUUCACCAAUGCCUAUGC (SEQ ID NO:121) (sense AUAGGCAUUGGUGAAUUUAAAGACA; sense: sugars from the 5' end r23 d2, 3' {DBCO}, backbone not given here; antisense: RNA, backbone not given here; sense 3' DBCO clicked to azide EGFR-binding peptide) [reference compound] | no YOYO-1 staining |  |  |  | 
2 | unconjugated Cy5.5-labeled siRNA of Example 1: anti-PD-L1 siRNA: sense GACUCAAGAUGGAACCUGAdTdT-[DBCO] (SEQ ID NO:12), antisense dTdTCUGAGUUCUACCUUGGACU-Cy5.5 (SEQ ID NO:13) (sense GACUCAAGAUGGAACCUGATT; antisense TTCUGAGUUCUACCUUGGACU; dTdT overhangs, DBCO, Cy5.5 label, chemistry not fully specified; one strand is listed 3' to 5') [reference compound] |  | very low levels of Cy5.5 fluorescence | little to no Cy5.5 fluorescence | significantly less Cy5.5 fluorescence | significantly less Cy5.5 fluorescence

Reference: patent US20240325550A1, “Therapeutic Compounds for Inhibiting and Reducing the Expression of Cell Surface Proteins” (KIST (Korea Institute of Science and Technology), priority 2023, published 2024)
